ChEMBL document CHEMBL1138245, “Discovery of N1-(6-chloroimidazo[2,1-b][1,3]thiazole-5-sulfonyl)tryptamine as a potent, selective, and orally active 5-HT(6) receptor agonist” (J Med Chem, 2007)

Tests used:
[1] = target: T1, 5-hydroxytryptamine receptor 6 (Homo sapiens, UniProt P50406); assay: Displacement of [3H]LSD from human 5HT6 receptor expressed in HeLa cells; type: cell-based
[2] = target: T1, 5-hydroxytryptamine receptor 6; assay: Agonist activity at human 5HT6 receptor expressed in HeLa cells assessed as cAMP production; type: functional, cell-based

T1 sequence (P50406 whole entry): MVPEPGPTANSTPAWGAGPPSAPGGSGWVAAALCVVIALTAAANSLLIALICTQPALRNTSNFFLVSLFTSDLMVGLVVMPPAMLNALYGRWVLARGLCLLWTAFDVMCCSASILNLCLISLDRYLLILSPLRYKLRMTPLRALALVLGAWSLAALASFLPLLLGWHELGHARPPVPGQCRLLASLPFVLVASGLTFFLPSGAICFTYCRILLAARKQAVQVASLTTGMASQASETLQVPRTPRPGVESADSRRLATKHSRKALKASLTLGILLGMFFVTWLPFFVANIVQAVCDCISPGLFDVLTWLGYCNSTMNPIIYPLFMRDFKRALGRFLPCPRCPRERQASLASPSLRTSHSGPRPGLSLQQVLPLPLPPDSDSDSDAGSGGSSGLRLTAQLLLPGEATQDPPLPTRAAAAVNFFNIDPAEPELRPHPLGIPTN

| SMILES | Ki [1] [nM] | EC50 [2] [nM] | Emax [2] [%] |
| --- | --- | --- | --- |
| COc1ccc(S(=O)(=O)n2cc(CCN)c3ccccc32)cc1 | 47 | – | – |
| NCCc1cn(S(=O)(=O)c2ccc(I)cc2)c2ccccc12 | 14 | – | – |
| Cc1ccc(S(=O)(=O)n2cc(CCN)c3ccccc32)cc1 | 8 | 191 | 87.5 |
| NCCc1cn(S(=O)(=O)c2ccc(Cl)c(Cl)c2)c2ccccc12 | 30 | – | – |
